In patent US20250388867A1, “COMPOSITION AND METHOD FOR CULTURING ORGANOIDS” (ORGANOIDSCIENCES, LTD., priority 2017, published 2025):

Legend:
[1] = test system: small intestinal organoids; experiment: Screening of compound library using organoid proliferation measurement; format: cell-based, mouse; conditions: 50 μM in EN culture solution, 4 days
Source text: Small intestinal crypts were isolated from a mouse to be used in experiments for preparing and culturing small intestinal organoids. Specifically, the small intestine was isolated after killing a 5-7 weeks old C57BL/6 mouse weighing 20-25 g by cervical vertebrae dislocation. The small intestine was cut longitudinally from a proximal end to a distal end, and also laterally cut into pieces of about 5 mm length. The piece of small intestine obtained was washed with ice-cooled Dulbecco's phosphate-buffered saline (DPBS) until the supernatant liquid was sufficiently clear. Then, the crypts were isolated by treating with a Gentle Cell Dissociation Reagent (StemCell Technologies, Cambridge, MA), and filtering with a cell strainer.
Compounds which can replace R-spondin in organoid cultures were screened for 8,364 types of compounds included in a representative library of the Korea Chemical Bank.
The small intestinal crypts derived from the small intestine of a 7-week-old C57BL/6 mouse isolated in Example 1 were mixed in Matrigel, and placed in each well of a 96-well plate. […]
The number of living organoids, the number of budding organoids, and the circumference of each organoid were measured using the optical microscope photos. […] The compounds were ranked based on the measured values, and then 295 candidate compounds were selected to be used in a second screening. […]

[2] = test system: human large intestinal organoids; experiment: Formation of large intestinal organoids (Example 6); format: cell-based; conditions: for organoid formation: 5 days
Source text: (§1) Large intestinal tissue was isolated from a human patient during surgery and used in experiments for forming organoids. The tissue was cut longitudinally from a proximal end to a distal end, and also laterally cut into pieces of about 5 mm length. The tissue pieces, which were isolated crypts, were washed with ice-cooled Dulbecco's phosphate-buffered saline (DPBS) until the supernatant liquid was sufficiently clear. Then, the crypts were isolated by treating with a Gentle Cell Dissociation Reagent (StemCell Technologies, Cambridge, MA), and filtering with a cell strainer. The crypts were mixed in collagen gel, and placed in each well of a well plate with the composition comprising the compound of the chemical formula 1 (namely, RS-246204). After keeping in 37° C. humidification incubator (5% CO2) for 5 days, the formed organoids were observed, and optical microscope photos were taken for analysis.
(§2) The control and experimental groups were classified as follows depending on the components of the medium composition used.
• ENR group: Basal media supplemented with EGF (E), Noggin (N) and R-spondin (R) was used to form human large intestinal organoids. • EN+RS-246204 group: Basal media supplemented with EGF (E), Noggin (N) and RS-246204 (25 or 50 μM) was used to form human large intestinal organoids.
• RS-246204 group: Basal media supplemented with RS-246204 (25 or 50 μM) was used to form human large intestinal organoids.
Noggin, thiazovivin, CHIR99021, and a pharmaceutically acceptable salt of CHIR99021 was not used in both the control and experimental groups.

[3] = test system: small intestinal organoids; experiment: CFTR agonist Forskolin analysis (function maintenance); format: cell-based, mouse; conditions: 4 days culture, then forskolin 5 μM, 1 hour
Experimental: In order to check whether functions of small intestinal epithelial cells are maintained in the small intestinal organoids cultured using the RS-246204 culture solution, CFTR agonist Forskolin analysis was performed. The forskolin is a compound which stimulates ion channels to open, thereby promoting the release of moisture. In case of small intestinal organoids, moisture gathers into the lumen by the forskolin stimulation and changes into a large spherical shape, thereby confirming the maintenance of the function of epithelial cells. After culturing for 4 days in RS-246204 culture solution and ENR culture solution, respectively, it was replaced with a culture solution to which forskolin was added at a concentration of 5 μM. Photographs were taken by an optical microscope at an interval of 10 minutes for 1 hour immediately after the replacement. Based on the optical micrographs, the free curve tool of Dixi eXcope (Korea) program was used to measure the circumference of each organoid per hour and analyze the change in circumference.

[4] = test system: small intestinal organoids; experiment: Budding characteristics analysis (counts of budding and non-budding organoids); format: cell-based, mouse; conditions: 4 days
Source text: The morphological characteristic of the small intestinal organoids is that they grow while budding. In order to check that the budding rate of the small intestinal organoids grown in the RS-246204-added culture solution (hereinafter, RS-246204 culture solution) is similar to that grown in ENR culture solution, the total number of organoids, the number of budding organoids, and the number of non-budding organoids were counted in the wells culturing for 4 days. The rate of budding organoids and non-budding organoids grown in the culture solution containing 50 μM of RS-246204 is about 1:1, which is similar to the rate of organoids grown in the ENR culture solution (see FIG. 2C).

[5] = test system: pancreatic cancer organoids; experiment: Formation of organoids (Example 8), pancreatic cancer; format: cell-based, human
Source text: (§3) Large intestinal tissue, adenoid tissue, and pancreatic cancer tissue were isolated from a patient during surgery and used in experiments for preparing and culturing organoids. Salivary tissue was isolated from a mouse and used in experiments for preparing and culturing organoids.
(§4) Each of the tissues was cut longitudinally from a proximal end to a distal end, and also laterally cut into pieces of about 5 mm length. The piece of the tissues obtained was washed with ice-cooled Dulbecco's phosphate-buffered saline (DPBS) until the supernatant liquid was sufficiently clear. Then, the tissues were isolated by treating with a Gentle Cell Dissociation Reagent (StemCell Technologies, Cambridge, MA), and filtering with a cell strainer. The isolated tissues were mixed in collagen gel, and placed in each well of a well plate. After keeping in 37° C. humidification incubator (5% CO2), the cultured organoids were observed, and optical microscope photos were taken for analysis.

[6] = test system: human large intestinal organoids; experiment: Formation of large intestinal organoids, RS-246204 concentration series (Example 7); format: cell-based
Source text: as §1, with “keeping in a 37° C.” for “keeping in 37° C.”, “were observed, optical microscope” for “were observed, and optical microscope”, “taken for analysis, and organoid counts were analyzed using Leopard iX software.” for “taken for analysis.”
as §2
• RS 0 μM group: Basal media (Advanced DMEM/F12 media) not supplemented with RS-246204 (also referred to as “RS”) was used to form human large intestinal organoids. • RS 2.5 μM group: Basal media (Advanced DMEM/F12 media) supplemented with RS-246204 2.5 μM was used to form human large intestinal organoids.
• RS 5 μM group: Basal media (Advanced DMEM/F12 media) supplemented with RS-246204 5[…] μM was used to form human large intestinal organoids. • RS 50 μM group: Basal media (Advanced DMEM/F12 media) supplemented with RS-246204 50 μM was used to form human large intestinal organoids. • RS 100 μM group: Basal media (Advanced DMEM/F12 media) supplemented with RS-246204 100 μM was used to form human large intestinal organoids.

[7] = test system: small intestinal organoids; experiment: Subculture of small intestinal organoids; format: cell-based, mouse; conditions: RS-246204 culture solution
[8] = test system: small intestinal organoids; experiment: RT-PCR and qRT-PCR analysis of lineage markers; format: cell-based, mouse
Experimental: In order to confirm whether lineage markers specific to the small intestinal organoids are expressed when cultured with RS-246204, RNA analysis was performed. The small intestinal organoids cultured in ENR and RS-246204 culture solutions, respectively, for 4 days were collected. RNA was extracted and cDNA was synthesized, and then RT-PCR was performed. As a marker for intestinal stem cells, goblet cells, paneth cells, enteroendocrine cells and enterocyte, RT-PCR was performed using RNA primers for Lgr5, muc-1 and muc-2, defesing-5, chromogranin A (ChgA), and villin, respectively.
For quantitative analysis, qRT-PCR analysis was performed. AccuPower 2X Greenstar qPCR MasterMix (Bioneer) and Thermal Cycler Dice® Real Time System III (Takara, Japan) were used, and the reaction was performed for 10 seconds at 95° C. (denaturation), 15 seconds at 57° C. (annealing), and 20 seconds at 72° C. (extension). The RNA primers excluded Muc1 among those used in the RT-PCR test, changed the enterocyte marker from villin to Intestinal Alkaline Phosphatase (IAP), and used the same sequence for the rest.

[9] = test system: large intestinal organoids; experiment: Formation of organoids (Example 8), large intestinal; format: cell-based, human
Source text: as §3, §4

adenoid organoids = experiment: Formation of organoids (Example 8), adenoid; format: cell-based, human; conditions: 1 μM
Source text: as §3, §4

[10] = test system: small intestinal organoids; experiment: Organoid circumference by date (growth efficiency); format: cell-based, mouse; conditions: RS-246204 culture solution vs ENR culture solution, photographed every day
Experimental: In order to check whether the growth efficiency of the small intestinal organoids grown in the RS-246204 culture solution has a difference, the small intestinal organoids cultured in each culture solution were photographed by an optical microscope every day. The circumference of the individual organoid according to the condition of culture medium and date was measured, and converted into percentage.

salivary organoids = experiment: Formation of organoids (Example 8), salivary; format: cell-based, mouse
Source text: as §3, §4

[11] = test system: small intestinal organoids; experiment: Immunofluorescence analysis; format: cell-based, mouse; conditions: organoids cultured in ENR and RS-246204 culture solutions

Cn1c(Sc2ccc3ccccc3n2)nc2c1c(=O)[nH]c(=O)n2C [RS-246204]
growth of small intestinal organoids ([1]; among the final seven candidate compounds): highest growth of small intestinal organoids among the candidate materials
growth and maintenance of organoids compared with R-spondin ([1]; numerical data and visual confirmation): could grow and maintain organoids most similar to R-spondin
organoid formation ([2]; EN+RS-246204 group: basal media with EGF, Noggin and RS-246204 (25 or 50 μM)): human intestinal organoids were formed
quantity of organoid calculated from the confluency ([2]; RS-246204 group (25 or 50 μM) compared with ENR or EN+RS-246204 groups): no significant difference
organoid formation ([2]; RS-246204 group: basal media supplemented with RS-246204 only (25 or 50 μM)): human intestinal organoids were formed
function of epithelial cells after forskolin stimulation [3]: performed well as epithelial cells
killing of organoids ([4]; concentration higher than 50 μM): most organoids were killed
rate of non-budding organoids ([4]; concentration lower than 50 μM): increased
growth after subculturing [5]: can grow even after subculturing
formation and proliferation effects ([5]; 30 μM RS-246204): excellent formation and proliferation effects
quantity of organoid calculated from the confluency ([6]; RS 2.5 μM compared with RS 0 μM group): no significant difference
organoid formation ([6]; RS 2.5 μM in Advanced DMEM/F12, 5 days): human intestinal organoids were formed
organoid formation ([6]; RS-246204 5, 50 or 100 μM in Advanced DMEM/F12, 5 days): human intestinal organoids were formed
growth and maintenance after the subculture [7]: growth and maintenance were also possible even after the subculture
possibility to subculture ([7]; same manner as ENR culture solution): possible to subculture
presence of intestinal stem cells, goblet cells, paneth cells, enteroendocrine cells and enterocyte (RT-PCR markers) ([8]; 4 days culture, Lgr5, muc-1, muc-2, defesing-5, ChgA, villin): all these cells were present
relative amount of markers expressed (qRT-PCR) ([8]; ENR vs RS-246204 culture solutions): little difference between the ENR and RS-246204 culture solutions
budding (crypt) formation [9]: grow while forming budding (crypt)
growth after subculturing [9]: can grow even after subculturing
formation and proliferation effects ([9]; 20 μM RS-246204): excellent formation and proliferation effects
dose dependence of formation and proliferation (adenoid organoids; 2 μM or 5 μM): form and proliferate in a dose-dependent manner
formation and proliferation effects (adenoid organoids; 2 μM or 5 μM RS-246204): excellent formation and proliferation effects
growth efficiency and increase rate of the circumference according to date [10]: similarly observed
growth after subculturing (salivary organoids): can grow even after subculturing
dose dependence of formation and proliferation (salivary organoids; 1.25 μM, 2.5 μM or 5 μM): form and proliferate in a dose-dependent manner
formation and proliferation effects (salivary organoids; 1.25 μM, 2.5 μM or 5 μM RS-246204): excellent formation and proliferation effects
expression of Muc-2, lysozyme and Ki67 (immunofluorescence staining) [11]: confirm the expression of Muc-2, lysozyme, and Ki67
